These results are taken from patent US10517926B2, “Oligopeptide having proinflammatory cytokine secretion-inhibiting activity” (Osaka University, priority 2015, dated 2019).

The experiment relates to osteoclast precursor cells. Nature of the experiment: Osteoclast differentiation, Osteoclast Culture Kit (TRAP and nuclear staining). The format is cell-based. Here is the method: Osteoclast Culture Kit V-2 (OSC33, produced by Cosmo Bio Co., Ltd.) was used. According to the manual of the kit, culture of osteoclast precursor cells was started in the presence of M-CSF (final concentration: 50 ng/ml) in the A and B groups, and in the presence of M-CSF (final concentration: 50 ng/ml) and MHP1 (final concentration: 30, 50, or 100 μg/ml) in the C and D groups. Thereafter, 24 hours to 7 days after the start of culture, the A group was cultured in the presence of M-CSF (final concentration: 50 ng/ml), the B group was cultured in the presence of M-CSF (final concentration: 50 ng/ml) and RANKL protein (final concentration: 50 ng/ml), the C group was cultured in the presence of M-CSF (final concentration: 50 ng/ml) and MHP1 (final concentration: 30, 50, or 100 μg/ml), and the D group was cultured in the presence of M-CSF (final concentration: 50 ng/ml), RANKL protein (final concentration: 50 ng/ml), and MHP1 (final concentration: 30, 50, or 100 μg/ml). After culture, the cells were subjected to TRAP staining and nuclear staining according to a standard method.

In the case of “LMVYVVKTSIKIPSSHNLMKGGSTKNWSGN (listed as Mus musculus) [MHP1]”, under “M-CSF 50 ng/ml + RANKL protein 50 ng/ml + MHP1 30, 50 or 100 μg/ml, FIG. 13 (a)”, the “differentiation of osteoclasts promoted by RANKL” value is “inhibited”. Also, the “differentiation of osteoclasts by the substance itself” value (with M-CSF 50 ng/ml, MHP1 30, 50 or 100 μg/ml or RANKL protein 50 ng/ml, FIG. 13) is on record as “did not occur”.
